What was measured:
Format in all cases: biochemical
FGFR1 = biological target: T1, FGFR1 (Homo sapiens, UniProt P11362, C488A/C584S); assay: AlphaScreen kinase assay, FGFR1; conditions: read-out: IC50, activity toward kinase FGFR
T1 construct: P1351.pET N6 BI-PTP FGFR A458-E765-X C488A, C584S; made in house; host or cells: E. coli (PTP1B co-expressed)

Kit = biological target: T2, Kit (Homo sapiens, UniProt P10721); assay: AlphaScreen kinase assay, Kit; conditions: read-out: IC50, activity toward kinase Kit
T2 construct: P1332.N6 BI PTP KIT M552-K948-X COD; His6 (N); made in house; host or cells: E. coli (PTP1B co-expressed)
T2 sequence (P10721 with tags, fused parts or gaps): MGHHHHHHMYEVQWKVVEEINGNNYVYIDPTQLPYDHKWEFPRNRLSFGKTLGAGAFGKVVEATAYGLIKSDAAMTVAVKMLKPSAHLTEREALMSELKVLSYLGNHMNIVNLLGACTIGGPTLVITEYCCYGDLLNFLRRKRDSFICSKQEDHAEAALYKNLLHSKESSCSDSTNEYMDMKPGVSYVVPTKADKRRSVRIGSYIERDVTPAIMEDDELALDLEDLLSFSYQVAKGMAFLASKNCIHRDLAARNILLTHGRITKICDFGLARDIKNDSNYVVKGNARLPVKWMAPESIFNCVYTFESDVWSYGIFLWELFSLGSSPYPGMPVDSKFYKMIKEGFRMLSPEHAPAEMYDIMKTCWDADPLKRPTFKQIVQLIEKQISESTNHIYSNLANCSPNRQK

Jnk3 = biological target: T3, Jnk3 (Homo sapiens, UniProt P53779); assay: AlphaScreen kinase assay, Jnk3; conditions: read-out: IC50, activity toward kinase Jnk3
T3 construct: purchased Upstate Biotechnology

Jnk1 = biological target: T4, Jnk1 (Homo sapiens, UniProt P45983); assay: AlphaScreen kinase assay, Jnk1; conditions: read-out: IC50, activity toward kinase Jnk1
T4 construct: purchased Upstate Biotechnology
T4 sequence (P45983 whole entry): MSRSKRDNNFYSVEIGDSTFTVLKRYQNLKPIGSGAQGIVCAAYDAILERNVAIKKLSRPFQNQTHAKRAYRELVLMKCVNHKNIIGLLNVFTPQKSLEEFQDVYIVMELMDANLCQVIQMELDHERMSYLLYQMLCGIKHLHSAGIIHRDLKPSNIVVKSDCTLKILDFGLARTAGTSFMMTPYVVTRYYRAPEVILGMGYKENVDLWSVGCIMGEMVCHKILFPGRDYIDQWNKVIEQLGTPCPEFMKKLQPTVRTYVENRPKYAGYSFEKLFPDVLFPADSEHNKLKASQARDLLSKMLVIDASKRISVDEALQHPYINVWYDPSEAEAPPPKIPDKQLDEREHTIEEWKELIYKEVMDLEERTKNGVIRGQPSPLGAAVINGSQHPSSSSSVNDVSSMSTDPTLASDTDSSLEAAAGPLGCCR

Pyk2 = biological target: T5, Pyk2 (Homo sapiens, UniProt Q14289); assay: AlphaScreen kinase assay, Pyk2; conditions: read-out: IC50, activity toward kinase Pyk2
T5 construct: purchased Upstate Biotechnology
T5 sequence (Q14289 whole entry): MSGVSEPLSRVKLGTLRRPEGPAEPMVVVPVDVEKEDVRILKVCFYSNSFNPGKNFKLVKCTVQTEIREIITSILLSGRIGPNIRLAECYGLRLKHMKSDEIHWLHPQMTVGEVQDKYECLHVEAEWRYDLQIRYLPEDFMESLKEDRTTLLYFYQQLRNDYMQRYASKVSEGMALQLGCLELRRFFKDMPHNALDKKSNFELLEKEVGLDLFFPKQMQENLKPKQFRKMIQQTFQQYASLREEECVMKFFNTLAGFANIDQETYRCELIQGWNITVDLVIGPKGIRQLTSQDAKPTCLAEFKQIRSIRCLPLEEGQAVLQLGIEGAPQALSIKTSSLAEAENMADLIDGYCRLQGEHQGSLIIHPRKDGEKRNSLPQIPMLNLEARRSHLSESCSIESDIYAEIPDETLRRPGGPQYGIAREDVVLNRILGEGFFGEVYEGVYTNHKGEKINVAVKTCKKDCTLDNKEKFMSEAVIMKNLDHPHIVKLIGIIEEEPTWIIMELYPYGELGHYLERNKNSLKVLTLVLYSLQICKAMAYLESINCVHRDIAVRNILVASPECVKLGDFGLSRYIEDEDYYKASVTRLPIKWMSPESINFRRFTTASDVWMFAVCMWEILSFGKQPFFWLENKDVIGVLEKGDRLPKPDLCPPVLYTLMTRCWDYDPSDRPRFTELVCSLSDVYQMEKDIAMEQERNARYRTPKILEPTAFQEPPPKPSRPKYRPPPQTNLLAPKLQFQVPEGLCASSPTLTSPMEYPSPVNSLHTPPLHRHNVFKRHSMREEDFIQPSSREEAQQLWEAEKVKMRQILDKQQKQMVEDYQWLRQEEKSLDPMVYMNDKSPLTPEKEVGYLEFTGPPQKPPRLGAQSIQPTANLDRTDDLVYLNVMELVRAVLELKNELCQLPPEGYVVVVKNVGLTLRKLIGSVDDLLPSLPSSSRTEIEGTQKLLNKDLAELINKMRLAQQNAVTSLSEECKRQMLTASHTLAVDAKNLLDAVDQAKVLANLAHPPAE

B-Raf = biological target: T6, B-Raf (Homo sapiens, UniProt P15056); assay: AlphaScreen kinase assay, B-Raf; conditions: read-out: IC50, activity toward kinase B-Raf
T6 construct: purchased Upstate Biotechnology
T6 sequence (P15056 whole entry): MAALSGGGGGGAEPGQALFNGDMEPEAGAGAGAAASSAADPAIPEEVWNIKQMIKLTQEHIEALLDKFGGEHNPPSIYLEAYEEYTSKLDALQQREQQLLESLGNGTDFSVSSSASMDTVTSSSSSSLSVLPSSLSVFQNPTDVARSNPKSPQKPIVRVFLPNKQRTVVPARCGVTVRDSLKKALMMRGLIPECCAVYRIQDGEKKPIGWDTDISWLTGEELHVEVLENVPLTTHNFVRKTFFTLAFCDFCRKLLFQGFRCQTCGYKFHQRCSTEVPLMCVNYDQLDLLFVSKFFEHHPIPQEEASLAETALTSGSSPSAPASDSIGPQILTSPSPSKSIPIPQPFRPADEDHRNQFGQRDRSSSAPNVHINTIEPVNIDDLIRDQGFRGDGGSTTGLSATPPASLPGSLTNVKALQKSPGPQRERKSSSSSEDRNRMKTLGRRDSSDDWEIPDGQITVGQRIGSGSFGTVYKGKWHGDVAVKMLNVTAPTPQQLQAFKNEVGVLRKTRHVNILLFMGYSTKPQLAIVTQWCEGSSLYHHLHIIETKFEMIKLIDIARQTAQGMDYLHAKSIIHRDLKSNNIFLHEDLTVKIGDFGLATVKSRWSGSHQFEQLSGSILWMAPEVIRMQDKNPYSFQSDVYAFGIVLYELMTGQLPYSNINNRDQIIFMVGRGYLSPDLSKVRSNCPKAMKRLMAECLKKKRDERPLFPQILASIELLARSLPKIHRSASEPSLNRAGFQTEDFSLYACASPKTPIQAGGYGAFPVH

Src = biological target: T7, Src (Homo sapiens, UniProt P12931); assay: AlphaScreen kinase assay, Src; conditions: read-out: IC50, activity toward kinase Src
T7 construct: P1144. pET-N6 BI-PTP SRC V86-L536-X; made in house
T7 sequence (P12931 with tags, fused parts or gaps): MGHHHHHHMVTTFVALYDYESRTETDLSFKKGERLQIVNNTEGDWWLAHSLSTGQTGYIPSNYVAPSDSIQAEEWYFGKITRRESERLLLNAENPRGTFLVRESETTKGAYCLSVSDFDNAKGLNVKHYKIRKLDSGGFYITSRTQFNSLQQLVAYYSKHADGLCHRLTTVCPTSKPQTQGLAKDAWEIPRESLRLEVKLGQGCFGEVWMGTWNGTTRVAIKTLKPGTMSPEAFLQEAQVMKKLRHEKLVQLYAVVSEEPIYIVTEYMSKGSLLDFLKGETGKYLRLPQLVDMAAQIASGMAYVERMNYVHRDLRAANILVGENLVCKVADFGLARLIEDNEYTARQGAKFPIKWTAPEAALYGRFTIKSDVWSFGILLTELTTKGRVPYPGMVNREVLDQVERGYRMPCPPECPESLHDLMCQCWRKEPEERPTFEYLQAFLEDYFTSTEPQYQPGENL

B-Raf V600E = biological target: T8, B-Raf V600E (Homo sapiens, UniProt P15056, V600E); assay: AlphaScreen kinase assay, B-Raf V600E; conditions: read-out: IC50, activity toward kinase B-Raf V600E
T8 construct: P4254. pFastBacBD-CDC37 BRAF D437-K722-X, V600E; His6 with pFastBac HT leader (TEV site) (N); made in house; host or cells: Sf9 (baculovirus; chaperone CDC37 co-expressed)
T8 sequence (P15056 with tags, fused parts or gaps V600E): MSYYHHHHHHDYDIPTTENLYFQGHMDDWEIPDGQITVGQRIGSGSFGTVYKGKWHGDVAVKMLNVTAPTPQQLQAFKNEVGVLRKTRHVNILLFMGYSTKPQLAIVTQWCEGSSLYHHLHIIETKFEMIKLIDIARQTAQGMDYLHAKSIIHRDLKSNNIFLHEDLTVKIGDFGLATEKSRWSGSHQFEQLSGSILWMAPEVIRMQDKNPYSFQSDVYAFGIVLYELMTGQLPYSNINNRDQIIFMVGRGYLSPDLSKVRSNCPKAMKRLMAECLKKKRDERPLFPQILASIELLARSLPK

Fak = biological target: T9, Fak (Homo sapiens, UniProt Q05397); assay: AlphaScreen kinase assay, Fak; conditions: read-out: IC50, activity toward kinase Fak
T9 construct: P1358.pFastBacHtb FAK S411-Q686-X; His6 with pFastBacHTb leader (TEV site) (N); made in house; host or cells: Sf9 (baculovirus)
T9 sequence (Q05397 411-686): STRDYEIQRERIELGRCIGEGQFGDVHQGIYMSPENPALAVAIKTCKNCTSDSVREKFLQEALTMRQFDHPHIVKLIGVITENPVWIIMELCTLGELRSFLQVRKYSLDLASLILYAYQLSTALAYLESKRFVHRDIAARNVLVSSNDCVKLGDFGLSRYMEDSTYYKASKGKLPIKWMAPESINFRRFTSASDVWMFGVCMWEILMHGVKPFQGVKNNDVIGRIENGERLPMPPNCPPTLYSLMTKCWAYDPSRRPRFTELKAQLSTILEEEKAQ

Fms = biological target: T10, Fms (Homo sapiens, UniProt P07333); assay: AlphaScreen kinase assay, Fms; conditions: read-out: IC50, activity toward kinase Fms
T10 construct: purchased Upstate Biotechnology

c-Raf-1 = biological target: T11, c-Raf-1 (Homo sapiens, UniProt P04049); assay: AlphaScreen kinase assay, c-Raf-1; conditions: read-out: IC50, activity toward kinase c-Raf-1
T11 construct: purchased Upstate Biotechnology
T11 sequence (P04049 whole entry): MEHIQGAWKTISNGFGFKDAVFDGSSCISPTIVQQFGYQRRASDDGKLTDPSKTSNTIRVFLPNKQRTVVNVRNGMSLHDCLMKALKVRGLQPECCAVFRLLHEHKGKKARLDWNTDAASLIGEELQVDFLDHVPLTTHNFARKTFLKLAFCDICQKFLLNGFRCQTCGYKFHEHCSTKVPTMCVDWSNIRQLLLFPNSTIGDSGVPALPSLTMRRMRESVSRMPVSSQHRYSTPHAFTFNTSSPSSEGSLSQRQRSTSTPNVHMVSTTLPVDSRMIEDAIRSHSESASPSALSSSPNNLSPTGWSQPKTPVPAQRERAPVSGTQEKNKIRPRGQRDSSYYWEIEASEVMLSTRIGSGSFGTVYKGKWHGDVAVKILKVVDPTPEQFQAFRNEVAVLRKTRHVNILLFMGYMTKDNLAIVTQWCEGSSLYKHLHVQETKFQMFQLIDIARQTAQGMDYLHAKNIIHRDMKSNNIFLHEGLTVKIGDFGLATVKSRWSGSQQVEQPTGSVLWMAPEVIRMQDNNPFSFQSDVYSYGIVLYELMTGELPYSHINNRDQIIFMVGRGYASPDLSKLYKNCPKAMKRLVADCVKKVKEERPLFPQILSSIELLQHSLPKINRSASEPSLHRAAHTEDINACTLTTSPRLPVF

Flt1 = biological target: T12, Flt1 (Homo sapiens, UniProt P17948); assay: AlphaScreen kinase assay, Flt1; conditions: read-out: IC50, activity toward kinase Flt1
T12 construct: P1826.pETN6 BI-PTP FLT1 M799-D1165-X WT; His6 (N); made in house; host or cells: E. coli (PTP1B co-expressed)
T12 sequence (P17948 with tags, fused parts or gaps): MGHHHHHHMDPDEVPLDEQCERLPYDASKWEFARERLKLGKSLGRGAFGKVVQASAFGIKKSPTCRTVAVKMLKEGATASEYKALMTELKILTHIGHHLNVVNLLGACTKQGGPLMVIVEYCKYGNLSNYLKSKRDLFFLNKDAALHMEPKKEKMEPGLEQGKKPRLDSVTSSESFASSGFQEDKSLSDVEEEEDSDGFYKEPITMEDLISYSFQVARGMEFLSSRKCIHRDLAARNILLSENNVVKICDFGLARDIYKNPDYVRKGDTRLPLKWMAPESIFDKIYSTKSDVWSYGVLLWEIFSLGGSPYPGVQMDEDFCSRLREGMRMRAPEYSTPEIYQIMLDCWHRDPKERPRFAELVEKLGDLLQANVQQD

Ret = biological target: T13, Ret (Homo sapiens, UniProt P07949); assay: AlphaScreen kinase assay, Ret; conditions: read-out: IC50, activity toward kinase Ret
T13 construct: P1378.pET-SF BI-PTP RET H661-R1012 HIS; made in house
T13 sequence (P07949 with tags, fused parts or gaps): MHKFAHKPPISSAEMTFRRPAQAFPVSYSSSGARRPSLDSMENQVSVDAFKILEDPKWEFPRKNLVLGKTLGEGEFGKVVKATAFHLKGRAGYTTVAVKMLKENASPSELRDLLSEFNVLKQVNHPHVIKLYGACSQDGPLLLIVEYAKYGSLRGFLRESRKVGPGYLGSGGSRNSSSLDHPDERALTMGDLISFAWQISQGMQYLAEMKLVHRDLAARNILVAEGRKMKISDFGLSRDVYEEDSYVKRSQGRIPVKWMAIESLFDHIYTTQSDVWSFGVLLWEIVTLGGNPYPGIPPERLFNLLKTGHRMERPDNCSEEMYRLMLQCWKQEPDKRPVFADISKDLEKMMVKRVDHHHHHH

Jnk2 = biological target: T14, Jnk2 (Homo sapiens, UniProt P45984); assay: AlphaScreen kinase assay, Jnk2; conditions: read-out: IC50, activity toward kinase Jnk2
T14 construct: purchased Roche Protein Expression Group (Indianapolis, IN)
Summary of the method: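 AlphaScreen read-out: acceptor-bead emission falls when kinase is inhibited. Biotin-peptide substrate captured on streptavidin donor beads, phospho-specific antibody on acceptor beads. 8 concentrations, 1:3 dilution series, from 20 mM DMSO stocks.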

T1 sequence (P11362 458-765 C488A/C584S): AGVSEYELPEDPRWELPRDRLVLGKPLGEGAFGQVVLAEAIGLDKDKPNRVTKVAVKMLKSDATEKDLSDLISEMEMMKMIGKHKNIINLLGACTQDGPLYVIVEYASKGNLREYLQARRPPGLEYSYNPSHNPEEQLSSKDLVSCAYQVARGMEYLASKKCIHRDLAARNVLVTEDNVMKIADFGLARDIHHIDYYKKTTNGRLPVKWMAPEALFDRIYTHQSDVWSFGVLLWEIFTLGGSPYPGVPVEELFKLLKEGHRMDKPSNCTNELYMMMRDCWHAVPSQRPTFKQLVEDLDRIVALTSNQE

Row | IC50 (FGFR1) [µM] | IC50 (Kit) [µM] | IC50 (Jnk3) [µM] | IC50 (Jnk1) [µM] | IC50 (Pyk2) [µM] | IC50 (B-Raf) [µM] | IC50 (Src) [µM] | IC50 (B-Raf V600E) [µM] | IC50 (Fak) [µM] | IC50 (Fms) [µM] | IC50 (c-Raf-1) [µM] | IC50 (Flt1) [µM] | IC50 (Ret) [µM] | IC50 (Jnk2) [µM] | SMILES
1 | ≤ 10 | ≤ 10 | – | – | ≤ 10 | ≤ 10 | ≤ 10 | ≤ 10 | ≤ 10 | ≤ 10 | ≤ 10 | – | ≤ 10 | – | O=C(Nc1ccc(F)c(Cc2c[nH]c3ncc(-c4cccnc4)cc23)c1F)OCc1ccccc1 [Compound P-0396, [2,4-Difluoro-3-(5-pyridin-3-yl-1H-pyrrolo[2,3-b]pyridin-3-ylmethyl)-phenyl]-carbamic acid benzyl ester]
2 | ≤ 10 | ≤ 10 | – | – | ≤ 10 | ≤ 10 | ≤ 10 | ≤ 10 | ≤ 10 | ≤ 10 | ≤ 10 | – | – | – | CCCS(=O)(=O)Nc1ccc(F)c(Cc2c[nH]c3ncc(Nc4ccccc4)cc23)c1F [Compound P-0818, Propane-1-sulfonic acid [2,4-difluoro-3-(5-phenylamino-1H-pyrrolo[2,3-b]pyridin-3-ylmethyl)-phenyl]-amide]
3 | ≤ 10 | ≤ 10 | – | – | ≤ 10 | ≤ 10 | – | ≤ 10 | ≤ 10 | ≤ 10 | ≤ 10 | – | – | – | CC(C)S(=O)(=O)Nc1ccc(F)c(Cc2c[nH]c3ncc(Br)cc23)c1F [Compound P-0867, Propane-2-sulfonic acid [3-(5-bromo-1H-pyrrolo[2,3-b]pyridin-3-ylmethyl)-2,4-difluoro-phenyl]-amide]
4 | ≤ 10 | ≤ 10 | – | ≤ 10 | ≤ 10 | ≤ 10 | ≤ 10 | ≤ 10 | ≤ 10 | ≤ 10 | – | – | – | – | CCCC(=O)Nc1ccc(F)c(Cc2c[nH]c3ncc(-c4cccc(C(N)=O)c4)cc23)c1F [Compound P-1281]
5 | ≤ 10 | ≤ 10 | – | – | ≤ 10 | – | ≤ 10 | ≤ 10 | ≤ 10 | ≤ 10 | ≤ 10 | – | – | – | CCCS(=O)(=O)Nc1ccc(F)c(Cc2c[nH]c3ncc(OC)cc23)c1F [Compound P-1316]

Further lines, the molecule ahead of its results:

Row | SMILES | IC50 (FGFR1) [µM] | IC50 (Kit) [µM] | IC50 (Jnk3) [µM] | IC50 (Jnk1) [µM] | IC50 (Pyk2) [µM] | IC50 (B-Raf) [µM] | IC50 (Src) [µM] | IC50 (B-Raf V600E) [µM] | IC50 (Fak) [µM] | IC50 (Fms) [µM] | IC50 (c-Raf-1) [µM] | IC50 (Flt1) [µM] | IC50 (Ret) [µM] | IC50 (Jnk2) [µM]
6 | Nc1cccc(-c2cnc3[nH]cc(Cc4ccccc4F)c3c2)c1 [Compound P-1349] | ≤ 10 | ≤ 10 | ≤ 10 | ≤ 10 | ≤ 10 | ≤ 10 | ≤ 10 | ≤ 10 | ≤ 10 | – | – | – | – | –
7 | CCCC(=O)Nc1ccc(F)c(Cc2c[nH]c3ncc(Br)cc23)c1F [Compound P-1282] | ≤ 10 | – | – | – | ≤ 10 | ≤ 10 | – | ≤ 10 | ≤ 10 | ≤ 10 | – | – | – | –
8 | CCCC(=O)Nc1ccc(F)c(C(=O)c2c[nH]c3ncc(-c4cccc(C(N)=O)c4)cc23)c1F [Compound P-1365] | ≤ 10 | ≤ 10 | – | ≤ 10 | ≤ 10 | ≤ 10 | – | ≤ 10 | ≤ 10 | ≤ 10 | ≤ 10 | ≤ 10 | – | –
9 | CCCS(=O)(=O)Nc1ccc(F)c(Cc2c[nH]c3ncc(Br)cc23)c1F [Compound P-0910, Propane-1-sulfonic acid [3-(5-bromo-1H-pyrrolo[2,3-b]pyridin-3-ylmethyl)-2,4-difluoro-phenyl]-amide] | ≤ 10 | ≤ 10 | – | – | ≤ 10 | ≤ 10 | ≤ 10 | ≤ 10 | ≤ 10 | – | ≤ 10 | – | – | –
10 | CN(C)S(=O)(=O)Nc1ccc(F)c(C(=O)c2c[nH]c3ncc(-c4cccnc4)cc23)c1F [Compound P-0837, Dimethylamine-1-sulfonic acid [3-(5-pyridin-3-yl-1H-pyrrolo[2,3-b]pyridine-3-carbonyl)-2,4-difluoro-phenyl]-amide] | ≤ 10 | ≤ 10 | – | – | ≤ 10 | ≤ 10 | ≤ 10 | ≤ 10 | ≤ 10 | ≤ 10 | ≤ 10 | – | – | –
11 | CCCS(=O)(=O)Nc1ccc(F)c(Cc2c[nH]c3ncc(-c4ccccc4)cc23)c1F [Compound P-0911, Propane-1-sulfonic acid [2,4-difluoro-3-(5-phenyl-1H-pyrrolo[2,3-b]pyridin-3-ylmethyl)-phenyl]-amide] | ≤ 10 | ≤ 10 | – | – | ≤ 10 | ≤ 10 | – | ≤ 10 | ≤ 10 | ≤ 10 | ≤ 10 | – | – | –
12 | COC(=O)Nc1ccc(F)c(C(=O)c2c[nH]c3ncc(-c4cccnc4)cc23)c1F [Compound P-0486, [2,4-Difluoro-3-(5-pyridin-3-yl-1H-pyrrolo[2,3-b]pyridine-3-carbonyl)-phenyl]-carbamic acid methyl ester] | ≤ 10 | – | – | ≤ 10 | ≤ 10 | ≤ 10 | – | ≤ 10 | ≤ 10 | ≤ 10 | ≤ 10 | ≤ 10 | ≤ 10 | ≤ 10
